In patent US20060182775A1, “Insect repellent” (priority 2005, published 2006):

Columns and labels:
[1] = cited from earlier work
[2] = human, in vivo

Compound	absorption through the skin ([1]; in vivo)	effect on the nervous system ([1]; in vivo)	seizures and death ([1]; some individuals)	burning and/or irritation of skin [2]
CCN(CC)C(=O)c1cccc(C)c1 [DEET, n,n-diethyl-m-toluamide]	readily absorbed through the skin and enters into the blood stream	adversely affect the nervous system	caused seizures and even death in some individuals	
citronella oil				caused burning and/or irritation
